In US8778929B2, “Substituted heteroaryl inhibitors of B-RAF” (Boehringer Ingelheim International GmbH, priority 2008, dated 2014):

Biological target: B-Raf (V600E)-kinase (Homo sapiens, UniProt P15056, V600E)
Assay: Kinase test B-Raf (V600E)
Type: biochemical
Conditions: 100% = no inhibition, 0% = total inhibition, read-out: % CTL (residual activity of the enzyme relative to DMSO control); for remaining activity at 0.29 µM: measurement at 0.29 μM (*); for remaining activity at 2 µM: compound concentration 2 μM
Method in brief: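 Kinase preincubated with compound (typically 2 μM to 0.119 nM or 0.017 nM, 5% DMSO) 1 h at RT, then reacted 60 min at RT with 250 μM ATP and biotinylated MEK1. Phospho-MEK (Ser217/221) captured on streptavidin, detected by europium time-resolved fluorescence; IC50 from dose-response curves.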

Sequence of B-Raf (V600E)-kinase (P15056 whole entry V600E): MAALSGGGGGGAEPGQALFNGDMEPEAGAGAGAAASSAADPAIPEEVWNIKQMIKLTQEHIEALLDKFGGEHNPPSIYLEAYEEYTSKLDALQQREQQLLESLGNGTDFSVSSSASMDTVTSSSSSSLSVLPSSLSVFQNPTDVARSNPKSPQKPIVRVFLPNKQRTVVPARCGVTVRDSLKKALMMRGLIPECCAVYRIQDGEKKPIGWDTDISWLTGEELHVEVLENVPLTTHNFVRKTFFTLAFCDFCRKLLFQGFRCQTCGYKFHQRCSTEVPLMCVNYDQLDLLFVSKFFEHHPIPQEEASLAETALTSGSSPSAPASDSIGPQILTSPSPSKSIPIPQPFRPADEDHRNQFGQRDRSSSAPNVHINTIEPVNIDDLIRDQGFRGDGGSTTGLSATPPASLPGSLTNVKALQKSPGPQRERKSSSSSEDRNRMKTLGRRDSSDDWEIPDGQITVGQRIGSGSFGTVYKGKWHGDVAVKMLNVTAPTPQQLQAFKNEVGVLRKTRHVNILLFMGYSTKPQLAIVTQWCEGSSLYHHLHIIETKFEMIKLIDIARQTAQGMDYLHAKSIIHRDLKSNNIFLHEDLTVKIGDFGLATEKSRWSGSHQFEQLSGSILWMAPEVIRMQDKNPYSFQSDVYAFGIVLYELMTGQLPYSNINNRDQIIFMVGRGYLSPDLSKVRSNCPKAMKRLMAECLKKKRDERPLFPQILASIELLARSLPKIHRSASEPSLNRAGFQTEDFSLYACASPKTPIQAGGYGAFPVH

| Compound | remaining activity at 2 µM [%] | also measured |
| --- | --- | --- |
| Cc1ncc(C(=O)Nc2cc(N3CC[C@@H](N(C)C)C3)cc(C(F)(F)F)c2)cc1-n1cc(-c2cnn(C)c2C)nn1 [Example I-76] | – | remaining activity at 1.43 µM (measurement at 1.43 μM (***)): 2% |
| CC(=O)Nc1ncc(-c2cn(-c3cc(C(=O)Nc4cc(N5CCN(C)CC5)cc(C(F)(F)F)c4)cnc3C)nn2)s1 [Example I-16] | – | remaining activity at 0.29 µM: 2% |
| COCCCN1CCN(c2cncc(-c3cn(-c4cc(C(=O)Nc5cc(C(C)(C)C)on5)cnc4C)nn3)c2)CC1 [Example I-169] | 8.4 | – |
| CC(=O)Nc1ncc(-c2cn(-c3cc(NC(=O)c4cccc(C(C)(C)C#N)c4)cnc3C)nn2)s1 [XII-14] | – | remaining activity at 0.29 µM: 0.9% |
| Cc1ncc(C(=O)Nc2cc(N3CC[C@H](N(C)C)C3)c(C)c(C(F)(F)F)c2)cc1-n1cc(-c2cnn(C)c2C)nn1 [Example I-63] | 4.6 | – |
| C=CCN1CCN(c2cncc(-c3cn(-c4cc(C(=O)Nc5cc(C(C)(C)C)on5)cnc4C)nn3)c2)CC1 [Example I-174] | 8.1 | – |
| CCN(C)Cc1cncc(-c2cn(-c3cc(C(=O)Nc4cc(C(C)(C)C)on4)cnc3C)nn2)c1 [Example I-191] | 3 | – |
| COc1ccc(NC(=O)c2cnc(C)c(-n3cc(-c4cncs4)nn3)c2)cc1C(F)(F)F [Example I-89] | 1.5 | – |
| Cc1ncc(C(=O)Nc2cc(CN3CCCC3)c(C)c(C(F)(F)F)c2)cc1-n1cc(-c2cnn(C)c2C)nn1 [Example I-130] | 2.2 | – |
| Cc1ncc(C(=O)Nc2cc(C(C)(C)C)no2)cc1-n1cc(-c2cnn(C)c2C)nn1 [Example I-42] | 1.6 | – |
| Cc1ccc(C(F)(F)F)cc1NC(=O)c1cnc(C)c(-n2cc(-c3cnn(C)c3C)nn2)c1 [Example I-8] | 1.6 | – |
| Cc1ncc(C(=O)Nc2cc(C(C)(C)C)on2)cc1-n1cc(-c2cncc(N3CCNCC3)c2)nn1 [Example I-183] | 1.8 | – |
| COc1c(CNC(C)C)cc(C(F)(F)F)cc1NC(=O)c1cnc(C)c(-n2cc(-c3cnn(C)c3C)nn2)c1 [Example I-13] | 2.3 | – |
| Cc1ncc(C(=O)Nc2cn(C(C)C)nn2)cc1-n1cc(-c2cncc(N3CCN(C(C)C)CC3)c2)nn1 [Example I-149] | 2.1 | – |
| Cc1ncc(C(=O)Nc2cc(CNCC(C)C)cc(C(F)(F)F)c2)cc1-n1cc(-c2cnn(C)c2C)nn1 [Example I-108] | 1.7 | – |
| COCCN(C)Cc1cc(NC(=O)c2cnc(C)c(-n3cc(-c4cnn(C)c4C)nn3)c2)cc(C(F)(F)F)c1C [Example I-94] | 3.5 | – |
| COCCN1CCN(c2cncc(-c3cn(-c4cc(C(=O)Nc5cc(C(C)(C)C)on5)cnc4C)nn3)c2)CC1 [Example I-135] | 2.6 | – |
| Cc1ncc(C(=O)Nc2cc(C(F)(F)F)ccn2)cc1-n1cc(-c2cncnc2)nn1 [Example I-23] | 5.9 | – |

More lines, main results first:

| remaining activity at 2 µM [%] | Compound | also measured |
| --- | --- | --- |
| 5.2 | COc1cncc(-c2cn(-c3cc(NC(=O)c4cccc(C(C)(C)C#N)c4)cnc3C)nn2)c1 [XII-12] | – |
| 6.4 | Cc1ncc(NC(=O)c2cccc(OC(F)(F)F)c2)cc1-n1cc(-c2cnn(C)c2C)nn1 [XII-8] | – |
| 2 | Cc1ncc(NC(=O)c2cc(OC(F)(F)F)cc(N(C)C3CCN(C)C3)c2)cc1-n1cc(-c2cnn(C)c2C)nn1 (stereo not shown) [XII-28] | – |
| 6.5 | CC(=O)Nc1ncc(-c2cn(-c3cc(NC(=O)c4cc(OC(F)(F)F)cc(N5CCN(C)CC5)c4)cnc3C)nn2)s1 [XII-19] | – |
| 2.9 | Cc1ncc(NC(=O)c2cc(C(F)(F)F)ccn2)cc1-n1cc(-c2cncc(N3CCN(C(C)(C)C)CC3)c2)nn1 [XII-32] | – |
| 7 | Cc1ncc(NC(=O)c2cccc(C(C)(C)C#N)c2)cc1-n1cc(-c2cncc(NCCN(C)C)c2)nn1 [XII-52] | – |
| 2.3 | Cc1ncc(NC(=O)c2cc(C(F)(F)F)ccn2)cc1-n1cc(-c2cncc(N3CCN(CC(C)C)CC3)c2)nn1 [XII-37] | – |
